# PMC8712285, “Thermococcus sp. KS-1 PPIase as a fusion partner improving soluble production of aromatic amino acid decarboxylase” (AMB Express, 2021)
# Legend:
# [1] = target: T1, PPIase KS-1-AADC (Pseudomonas putida, UniProt Q88JU5); assay: HPLC of dopamine formation, cell-free extract; type: biochemical; settings: 1 mM L-dopa, 50 uM PLP, 2 mM 2-ME, 50 mM potassium phosphate pH 8.0, 30 °C
# T1 construct: gene PP_2552; AADC with N-terminal solubility partner Thermococcus sp; not cut; E. coli BL21(DE3)
# [2] = target: T2, AADC (aromatic amino acid decarboxylase) (Pseudomonas putida, UniProt Q88JU5); assay: HPLC of dopamine formation, cell-free extract; type: biochemical; settings: 1 mM L-dopa, 50 uM PLP, 2 mM 2-ME, 50 mM potassium phosphate pH 8.0, 30 °C
# T2 construct: gene PP_2552; full-length, untagged, from pET-3a (pAADC) in E. coli BL21(DE3)
# [3] = target: T3, NusA-AADC (Pseudomonas putida, UniProt Q88JU5); assay: HPLC of dopamine formation, cell-free extract; type: biochemical; settings: 1 mM L-dopa, 50 uM PLP, 2 mM 2-ME, 50 mM potassium phosphate pH 8.0, 30 °C
# T3 construct: gene PP_2552; E. coli BL21(DE3)
# [4] = target: T1, PPIase KS-1-AADC; assay: HPLC (AccQ-tag) of phenylethylamine produced by recombinant E. coli cells; type: cell-based; settings: 1 mM L-phenylalanine, M9 minimal medium, 25 °C, whole cells
# T1 sequence (Q88JU5 entry or part of it): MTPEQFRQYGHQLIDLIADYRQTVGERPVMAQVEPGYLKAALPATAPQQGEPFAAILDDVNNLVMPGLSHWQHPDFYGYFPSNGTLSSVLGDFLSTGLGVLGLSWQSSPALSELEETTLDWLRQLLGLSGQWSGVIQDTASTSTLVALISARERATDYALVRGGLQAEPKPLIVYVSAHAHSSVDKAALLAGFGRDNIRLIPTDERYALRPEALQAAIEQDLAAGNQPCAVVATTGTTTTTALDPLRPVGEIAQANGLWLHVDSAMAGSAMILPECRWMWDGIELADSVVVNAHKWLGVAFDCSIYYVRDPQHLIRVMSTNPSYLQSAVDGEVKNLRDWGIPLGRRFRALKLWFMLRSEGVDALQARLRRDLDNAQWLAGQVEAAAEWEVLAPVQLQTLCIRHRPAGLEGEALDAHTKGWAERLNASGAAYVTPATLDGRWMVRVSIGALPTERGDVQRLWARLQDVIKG
# T2 sequence (Q88JU5 entry or part of it): as above
# T3 sequence (Q88JU5 entry or part of it): as above
smiles,measurement,setting,value
N[C@@H](Cc1ccc(O)c(O)c1)C(=O)O [L-dopa],"HPLC of dopamine formation, cell-free extract",[1],the AADC activity toward L-dopa was significantly higher in PPIase KS−1-AADC as compared to NusA-AADC
same,"HPLC of dopamine formation, cell-free extract",[2],The AADC activity was measured using these cell-free extracts
same,"HPLC of dopamine formation, cell-free extract",[3],the AADC activity toward L-dopa was significantly higher in PPIase KS−1-AADC as compared to NusA-AADC
N[C@@H](Cc1ccccc1)C(=O)O [L-phenylalanine],HPLC (AccQ-tag) of phenylethylamine produced by recombinant E. coli cells,[4],Phenylethylamine accumulation was also higher in PPIase KS−1-AADC-producing strain
